Experimental data: US8992982B2, “Formulation of indomethacin” (Iceutica Pty Ltd., priority 2009, dated 2015)

Tests used:
Assay type in all cases: in vivo, human
[1] = tested on: pain after surgical removal of impacted third molars; experiment: Phase 2 dental pain study: patient's global evaluation of study drug; details: 400 mg; ITT
Protocol: (§1) The secondary efficacy endpoints were as follows: • TOTPAR over 0 to 4 hours (TOTPAR-4) after Time 0 • Visual Analogue Scale (VAS) pain intensity difference (VASPID) at each scheduled time point after Time 0 • Time to onset of analgesia (measured as time to perceptible pain relief confirmed by meaningful pain relief) • VAS pain intensity score at each scheduled time point • VAS summed pain intensity difference (VASSPID) over 0 to 4 hours (VASSPID-4) and over 0 to 8 hours (VASSPID-8) after Time 0 • Pain relief score at each scheduled time point after Time 0 • Peak pain relief • Time to peak pain relief • Time to first perceptible pain relief • Time to meaningful pain relief • Proportion of subjects using rescue medication • Time to first use of rescue medication (duration of analgesia) • Patient's global evaluation of study drug Safety:
For ordinal secondary endpoints such as pain relief at each scheduled time point, peak pain relief, and global evaluation of study drug, descriptive summaries including the number and percentage of subjects within each category were provided for each treatment group. Nominal P values from Cochran-Mantel-Haenszel tests comparing the placebo group with other treatment groups were provided, but no formal statistical inferences were drawn on the basis of these tests.

[2] = Phase 2 dental pain study: safety (TEAEs, vital signs); details: Safety population
Protocol: Efficacy was assessed during the 8 hours after Time 0. Safety was assessed by the incidence of treatment-emergent AEs (TEAEs) and changes in vital sign measurements.
The safety endpoints were the incidence of TEAEs and changes in vital sign measurements.
Protocol-specified safety data were provided in by-subject listings. The Medical Dictionary for Regulatory Activities (MedDRA) (version 11.0) was used to classify all AEs with respect to system organ class and preferred term. Adverse event summaries included only TEAEs, which were summarized by incidence, severity, and relationship to study drug for each treatment group. The Cochran-Mantel-Haenszel test was used to compare the rates of occurrence between the placebo and Indomethacin Nanoformulation Capsule groups for all TEAEs. A list of AEs leading to study discontinuation, along with the summaries described above, was also provided.
Vital sign measurements were summarized using descriptive statistics (mean, standard deviation [SD], median, minimum, and maximum) at each scheduled time point for each treatment group. Changes from Baseline for vital signs were calculated for each subject and summarized for each treatment group at each scheduled time point after Baseline. No formal statistical tests were performed.

[3] = tested on: pain after surgical removal of impacted third molars; experiment: Phase 2 dental pain study: use of rescue medication (proportion of subjects, time to first use); details: 400 mg
Protocol: Subjects assessed their baseline pain intensity (VAS) before receiving study drug (predose, Time 0) and their pain intensity (VAS) and pain relief (5-point categorical scale) at 15, 30, and 45 minutes and 1, 1.5, 2, 3, 4, 5, 6, 7, and 8 hours after Time 0 and immediately before the first dose of rescue medication. The 2-stopwatch method was used to record the time to perceptible and time to meaningful pain relief, respectively. Acetaminophen (1000 mg) was permitted as the initial rescue medication. Subjects were encouraged to wait at least 60 minutes after receiving study drug before taking rescue medication. […] Other restrictions included the following: no alcohol use from 24 hours before surgery until discharge on Day 1; nothing by mouth (NPO) from midnight before surgery until 1 hour after surgery; clear liquids only from 1 hour after surgery until 1 hour after dosing; and advancement of diet 1 hour after dosing according to standard practice.
as §1
For each time-to-event endpoint, the Kaplan-Meier method was used to evaluate the treatment effect. Time to onset of analgesia (measured as time to perceptible pain relief confirmed by meaningful pain relief) was based on data collected using the 2-stopwatch method. […] A summary table provided the number of subjects analyzed, the number of subjects censored, estimates for the quartiles, and 95% confidence intervals (CIs) for the estimated median. P values from log-rank tests were also used to examine treatment effect. Cox proportional hazard models were used to explore potential covariates such as sex, baseline pain intensity, and surgical trauma rating, if appropriate.
For the proportion of subjects using rescue medication, a logistic regression model that adjusted for baseline pain intensity was used to evaluate the treatment effect. Subgroup analysis by sex was performed if sex was confirmed to be a statistically significant covariate for TOTPAR-8. Baseline values were defined as the last measurements taken before dosing with a study drug.

## Cc1ccc(-c2cc(C(F)(F)F)nn2-c2ccc(S(N)(=O)=O)cc2)cc1 [Celecoxib]
[1]
  Patient's global evaluation of study drug: Excellent, %: (15.7) %
  Patient's global evaluation of study drug: Fair, %: (17.6) %
  Patient's global evaluation of study drug: Good, %: (19.6) %
  Patient's global evaluation of study drug: Poor, %: (11.8) %
  Patient's global evaluation of study drug: Very Good, %: (35.3) %
[2]
  Subjects with ≧1 severe TEAE: (5.9) %
  Subjects with ≧1 treatment-related TEAE: (2.0) %
[2]; n
  Subjects who died: 0
  Subjects who discontinued due to a TEAE: 0
  Subjects with ≧1 SAE: 0
[3]
  Hazard ratio vs placebo, Cox proportional hazards model (time to first use of rescue medication): 0.2
  Time to first use of rescue medication: subjects analyzed, %: (41.2) %
  Time to first use of rescue medication: subjects censored, %: (58.8) %
[3]; Kaplan-Meier estimate
  Time to first use of rescue medication, Mean: 4.7 h
  Time to first use of rescue medication, Q25: 3.30 h
